Paper PMC6273176, “In Silico Mining for Antimalarial Structure-Activity Knowledge and Discovery of Novel Antimalarial Curcuminoids” (Molecules, 2016)
Read-outs that look alike come from different tables or passages of the source.

What was measured:
P. falciparum 3D7 strain = assay: Antiplasmodial activity, SYBR Green I assay on P. falciparum 3D7 cultures; assay type: cell-based, Plasmodium falciparum; conditions: for IC50: read-out: Plasmodium falciparum 3D7 Strain IC50 ± SD
Method: In vitro biological assays. Compounds were tested to establish a full dose-titration and determination of the IC50. […] Antiplasmodial activity. The P. falciparum 3D7 strain was maintained in O+ human erythrocytes in albumin RPMI-supplemented medium under continuous culture using the candle-jar method. The parasites were synchronized to the ring stage by repeated sorbitol treatment. A 2.5% (v/v) erythrocyte suspension with 1% parasitemia (number of parasites per 100 red blood cells) was incubated with the compounds to be tested, previously dissolved in DMSO. […] After 44 h of incubation at 37 °C, the plates were subjected to 3 freeze-thaw cycles to achieve complete hemolysis. […] The incorporation of SYBR Green I (Applied Biosystems) in parasite DNA was measured using the Master […]® (Eppendorf) according to the following program to increase the SYBR Green incorporation: 90 °C (1 min), decrease in temperature from 90 °C to 10 °C (during 5 min) with reading the fluorescence. Then, the IC50 was calculated by icestimator software.

[1] = Cytotoxicity assay on MRC-5 fibroblasts (resazurin); assay type: cell-based, human; conditions: human
Method: (§1) In vitro biological assays. Compounds were tested to establish a full dose-titration and determination of the IC50. […] The selectivity antiprotozoal potential on P. falciparum (3D7 strain) was assessed by simultaneous evaluation of cytotoxicity on a fibroblast (MRC-5) cell line.
(§2) Cytotoxicity assay. […] Cell viability was assessed fluorometrically after 4 h of the addition of resazurin. Fluorescence was measured (excitation 550 nm, emission 590 nm), and the results were expressed as % reduction in cell viability compared to untreated control. Tamoxifen is used as the reference control.

[2] = tested on: human fibroblast MRC-5 cell line; assay: as above; assay type: cell-based
Method: as §1, §2

[3] = Plasmodium falciparum, 3D7, 44 h, 3D7 strain, ring-stage synchronized, 44 h incubation, SYBR Green I
[4] = MRC-5 SV2 cells, 72 h, resazurin, read-out: Cytotoxicity MRC-5 CC50
[5] = Plasmodium falciparum, 3D7, 44 h

SMILES | IC50 (P. falciparum 3D7 strain; [3]) [nM] | CC50 at 72 h [1] [nM] | SI CC50/IC50 [2] | cytotoxicity classification from CC50 [2] | also measured
O=C(/C=C/c1ccccc1)/C=C/c1ccccn1 [Compound A10] | 161 ± 20.5 | 1530 | 9.5 | rather cytotoxic | –
O=C1C[C@@H](c2ccccn2)S[C@@H](c2ccccn2)C1 [Compound B6] | > 500 | – | <128 | – | CC50 at 72 h [1, 4]: > 64000 nM
O=C(/C=C/c1c(Cl)cccc1Cl)/C=C/c1c(Cl)cccc1Cl [Compound A12] | 240 ± 20.4 | – | >266.5 | – | CC50 at 72 h [1, 4]: > 64000 nM
COc1ccc([C@H]2CC(=O)C[C@H](c3ccc(OC)cc3)S2(=O)=O)cc1 [Compound B10] | > 500 | – | <128 | – | CC50 at 72 h [1, 4]: > 64000 nM
O=C1C[C@H](c2ccccn2)[S+]([O-])[C@@H](c2ccccn2)C1 [Compound B3] | 40.1 ± 7.3 | 8000 | 199.5 | – | cytotoxicity classification from CC50 ([2]; MRC-5 cells, class in words): moderately cytotoxic
O=C1C[C@H](c2ccccn2)[S+]([O-])[C@H](c2ccccn2)C1 (stereo partly drawn) [Compound B5] | – | 8060 | 33.6 | – | IC50 (P. falciparum 3D7 strain; 3D7 strain, ring-stage synchronized, 44 h incubation, SYBR Green I): 240 ± 48.1 nM; cytotoxicity classification from CC50 ([2]; MRC-5 cells, class in words): moderately cytotoxic
O=C1C[C@H](c2ccccn2)S(=O)(=O)[C@H](c2ccccn2)C1 [Compound B11] | > 500 | 7470 | <14.9 | – | cytotoxicity classification from CC50 ([2]; MRC-5 cells, class in words): moderately cytotoxic
COc1ccc(/C=C/C(=O)/C=C/c2ccc3ccccc3c2)cc1 [Compound A3] | 51.2 ± 10.7 | 32000 | 625 | rather not cytotoxic | –
COc1ccc(/C=C/C(=O)/C=C/c2ccc(N)cc2)cc1 [Compound A15] | > 500 | – | – | – | –
COc1cc(Br)c(OC)c([C@@H]2CC(=O)C[C@H](c3cc(OC)cc(Br)c3OC)S2)c1 [Compound B1] | 30.3 ± 6.1 | > 64000 | >2112.2 | – | –
O=C(/C=C/c1ccccc1Cl)/C=C/c1ccccc1Cl [Compound A11] | 181 ± 29.6 | 29400 | 162.3 | – | –
Cc1ccc(/C=C/C(=O)/C=C/c2ccc(C)cc2)cc1 [Compound A17] | > 500 | 32500 | <64.9 | rather not cytotoxic | –
O=C(/C=C/c1ccc(Cl)cc1)/C=C/c1ccc(Cl)cc1 [Compound A9] | 121 ± 12.4 | 42400 | 351.6 | rather not cytotoxic | –
O=C(/C=C/c1ccccc1)/C=C/c1ccncc1 [Compound A7] | 120 ± 17.3 | 1990 | 16.5 | rather cytotoxic | –
O=C1C[C@@H](c2c(Cl)cccc2Cl)S[C@@H](c2c(Cl)cccc2Cl)C1 [Compound B4] | 60.4 ± 10.2 | – | – | – | –
CCN(CC)CCCC(C)Nc1ccnc2cc(Cl)ccc12 (stereo not drawn) [chloroquine, reference compound] | – | – | – | – | IC50 (P. falciparum 3D7 strain; [5]): 20.3 ± 5.2 nM
COc1cc([C@@H]2CC(=O)C[C@@H](c3cc(OC)c(C)cc3OC)S2)c(OC)cc1C [Compound B2] | 30.6 ± 9.2 | – | – | – | –

SMILES | IC50 (P. falciparum 3D7 strain; [3]) [nM] | CC50 at 72 h [1] [nM] | SI CC50/IC50 [2] | cytotoxicity classification from CC50 [2] | also measured
Cc1ccc(/C=C/C(=O)/C=C/c2ccc(C)o2)o1 [Compound A16] | > 500 | 5360 | <10.7 | – | cytotoxicity classification from CC50 ([2]; MRC-5 cells, class in words): rather cytotoxic
CN(C)c1ccc(/C=C/C(=O)/C=C/c2ccc(F)cn2)cc1 [Compound A5] | 110 ± 20.3 | 32200 | 292.4 | rather not cytotoxic | –
O=C(/C=C/c1ccncc1)/C=C/c1ccncc1 [Compound A13] | > 500 | 1130 | <2.3 | rather cytotoxic | –
COc1ccc(O)c(/C=C/C(=O)/C=C/c2cc(OC)ccc2O)c1 [Compound A2] | 30.2 ± 6.3 | 1880 | 62.2 | – | cytotoxicity classification from CC50 ([2]; MRC-5 cells, class in words): rather cytotoxic
COc1cc(/C=C/C(=O)/C=C/c2ccc(O)c(OC)c2)ccc1O [Compound A18] | – | 1060 | <2.1 | rather cytotoxic | IC50 (P. falciparum 3D7 strain; [5]): > 500 nM
CN(C)c1ccc([C@H]2CC(=O)C[C@H](c3ccc(N(C)C)cc3)S2)cc1 [Compound B12] | > 500 | 4960 | <9.9 | moderately cytotoxic | observed activity against 3D7 P. falciparum strain (in words) (P. falciparum 3D7 strain; in vitro 3D7 culture, active/inactive): inactive
O=C1C[C@@H](c2c(Cl)cccc2Cl)S[C@H](c2c(Cl)cccc2Cl)C1 [Compound B8] | > 500 | > 64000 | <128 | – | –
O=C1C[C@H](c2ccccn2)S[C@@H](c2ccccn2)C1 [Compound B7] | > 500 | – | <128 | – | CC50 at 72 h [1, 4]: > 64000 nM
CN(C)c1ccc(/C=C/C(=O)/C=C/c2nccs2)cc1 [Compound A6] | 111 ± 12.5 | > 64000 | – | – | –
O=C(/C=C/c1ccccc1)/C=C/c1ncccn1 [Compound A14] | > 500 | 1560 | <3.1 | rather cytotoxic | –
CN(C)c1ccc(/C=C/C(=O)/C=C/c2ccc(N(C)C)cc2)cc1 [Compound A19] | > 500 | 62300 | <124.5 | rather not cytotoxic | –
O=C(/C=C/c1ccccn1)/C=C/c1ccccn1 [Compound A1] | 30.1 ± 8.5 | 1910 | 63.4 | – | cytotoxicity classification from CC50 ([2]; MRC-5 cells, class in words): rather cytotoxic
CC/C(=C(\c1ccccc1)c1ccc(OCCN(C)C)cc1)c1ccccc1 [tamoxifen, reference compound] | – | – | – | – | CC50 at 72 h ([1]; MRC-5 SV2 fibroblast cells, MRC-5 SV2 cells, 72 h, resazurin, read-out: Cytotoxicity MRC-5 CC50): 9120 nM
O=C1C[C@H](c2ccccn2)S(=O)(=O)[C@@H](c2ccccn2)C1 [Compound B9] | > 500 | 7890 | <15.8 | – | cytotoxicity classification from CC50 ([2]; MRC-5 cells, class in words): moderately cytotoxic
O=C(/C=C/c1ccco1)/C=C/c1ccco1 [Compound A8] | 121 ± 10.5 | – | >530.2 | – | CC50 at 72 h [1, 4]: > 64000 nM
O=C(/C=C/c1ccc(F)cc1)/C=C/c1ccc(F)cc1 [Compound A4] | 70.6 ± 9.7 | – | – | – | –
